How the values were obtained:
Format in all cases: in vivo
[1] = tested on: Bemisia tabaci (Cotton White Fly); experiment: Example B1: Activity against Bemisia tabaci, cotton leaf discs sprayed; conditions: foliar, 144 h, application rate of 200 ppm, adult white flies, 6 days after incubation
Experimental: Cotton leaf discs were placed on agar in 24-well microtiter plates and sprayed with aqueous test solutions prepared from 10′000 ppm DMSO stock solutions. After drying the leaf discs were infested with adult white flies. The samples were checked for mortality 6 days after incubation.

[2] = tested on: Mysus persicae (Green Peach Aphid); experiment: Example B4: Activity against Mysus persicae, sunflower leaf discs sprayed; conditions: Myzus persicae, foliar, 144 h, application rate of 200 ppm, aphid population of mixed ages, 6 days after infestation
Experimental: Sunflower leaf discs were placed on agar in a 24-well microtiter plate and sprayed with aqueous test solutions prepared from 10′000 ppm DMSO stock solutions. After drying, the leaf discs were infested with an aphid population of mixed ages. The samples were assessed for mortality 6 days after infestation.

[3] = tested on: Mysus persicae (Green Peach Aphid); experiment: Example B6: Activity against Mysus persicae, sucrose solution under Parafilm; conditions: Myzus persicae, 120 h; test rate of 12 ppm; mixed with sucrose solution; 5 days after infestation
Experimental: Test compounds from 10′000 ppm DMSO stock solutions were applied by pipette into 24-well microtiter plates and mixed with sucrose solution. The plates were closed with a stretched Parafilm. A plastic stencil with 24 holes was placed onto the plate and infested pea seedlings were placed directly on the Parafilm. The infested plate was closed with a gel blotting paper and another plastic stencil and then turned upside down. The samples were assessed for mortality 5 days after infestation.

[4] = tested on: Aedes aegypti (Yellow Fever Mosquito); experiment: whole plant or invertebrate; conditions: 48 h, test rate of 5 ppm, L2 larvae, incubation period of 2 days, read-out: effect in at least one of the two categories (mortality or growth inhibition)
Experimental: 10 to 15 Aedes larvae (L2) together with a nutrition mixture were placed in 96-well microtiter plates. Test compounds were pipetted into the wells. After an incubation period of 2 days insects were assessed for mortality and growth inhibition.

[5] = tested on: Diabrotica balteata (Corn Root Worm); experiment: Example B2: Activity against Diabrotica balteata, maize sprouts sprayed; conditions: 96 h, application rate of 200 ppm, L2 larvae, 4 days after infestation
Experimental: Maize sprouts, placed on an agar layer in 24-well microtiter plates were treated with aqueous test solutions prepared from 10′000 ppm DMSO stock solutions by spraying. After drying, the plates were infested with L2 larvae (6 to 10 per well). The samples were assessed for mortality 4 days after infestation.

[6] = tested on: Spodoptera littoralis (Egyptian Cotton Leaf Worm); experiment: Example B8: Activity against Spodoptera littoralis, cotton leaf discs sprayed; conditions: foliar, 72 h, application rate of 200 ppm, L1 larvae, 3 days after infestation, read-out: control (at least one of mortality, anti-feedant effect, and growth inhibition)
Experimental: Cotton leaf discs were placed on agar in 24-well microtiter plates and sprayed with aqueous test solutions prepared from 10′000 ppm DMSO stock solutions. After drying the leaf discs were infested with five L1 larvae. The samples were assessed for mortality, anti-feedant effect, and growth inhibition in comparison to untreated samples 3 days after infestation. Control of Spodoptera littoralis by a test sample is when at least one of mortality, anti-feedant effect, and growth inhibition is higher than the untreated sample.

[7] = tested on: Spodoptera littoralis (Egyptian Cotton Leaf Worm); experiment: Example B9: Activity against Spodoptera littoralis, lettuce grown on treated agar; conditions: 144 h, test rate of 12.5 ppm, compound mixed with agar, taken up by lettuce roots, 6 days after infestation, read-out: effect in at least one of the three categories (mortality, anti-feedancy, or growth inhibition)
Excerpt: Test compounds were applied by pipette from 10′000 ppm DMSO stock solutions into 24-well plates and mixed with agar. Lettuce seeds were placed on the agar and the multi well plate was closed by another plate which contains also agar. After 7 days the roots have absorbed the compound and the lettuce has grown into the lid plate. The lettuce leafs were now cut off into the lid plate. Spodoptera eggs were pipetted through a plastic stencil on a humid gel blotting paper and the plate closed with it. The samples were assessed for mortality, anti-feedant effect and growth inhibition in comparison to untreated samples 6 days after infestation.

[8] = tested on: Euschistus heros (Neotropical Brown Stink Bug); experiment: Example B3: Activity against Euschistus heros, soybean leaf sprayed; conditions: 120 h, application rate of 200 ppm, N-2 nymphs, 5 days after infestation, read-out: effect in at least one of the two categories (mortality or growth inhibition)
Experimental: Soybean leaf on agar in 24-well microtiter plates were sprayed with aqueous test solutions prepared from 10′000 ppm DMSO stock solutions. After drying the leaf were infested with N-2 nymphs. The samples were assessed for growth inhibition in comparison to untreated samples 5 days after infestation.

[9] = tested on: Plutella xylostella (Diamond Back Moth); experiment: Example B7: Activity against Plutella xylostella, artificial diet; conditions: 120 h, application rate of 200 ppm, L2 larvae, 5 days after infestation, read-out: effect in at least one of the two categories (mortality or growth inhibition)
Experimental: 24-well microtiter plates with artificial diet were treated with aqueous test solutions prepared from 10′000 ppm DMSO stock solutions by pipetting. After drying, the plates were infested with L2 larvae (10 to 15 per well). The samples were assessed for mortality and growth inhibition in comparison to untreated samples 5 days after infestation.

[10] = tested on: Tetranychus urticae (Two-Spotted Spider Mite); experiment: Example B10: Activity against Tetranychus urticae, feeding/contact activity; conditions: 192 h
Experimental: Bean leaf discs on agar in 24-well microtiter plates were sprayed with aqueous test solutions prepared from 10′000 ppm DMSO stock solutions. After drying the leaf discs were infested with a mite population of mixed ages. The samples were assessed for mortality on mixed population (mobile stages) 8 days after infestation.

[11] = tested on: Mysus persicae (Green Peach Aphid); experiment: Example B5: Activity against Mysus persicae, roots of pea seedlings in test solutions; conditions: Myzus persicae, 144 h, test rate of 24 ppm, 6 days
Experimental: Roots of pea seedlings infested with an aphid population of mixed ages were placed directly in the aqueous test solutions prepared from 10′000 DMSO stock solutions. The samples were assessed for mortality 6 days after placing seedlings in test solutions.

[12] = tested on: Thrips tabaci (Onion Thrips); experiment: Example B11: Activity against Thrips tabaci, feeding/contact activity; conditions: 144 h, application rate of 200 ppm, thrips population of mixed ages, 6 days after infestation
Experimental: Sunflower leaf discs were placed on agar in 24-well microtiter plates and sprayed with aqueous test solutions prepared from 10′000 ppm DMSO stock solutions. After drying the leaf discs were infested with a thrips population of mixed ages. The samples were assessed for mortality 6 days after infestation.

CCSc1ccccc1-n1cc2cnc(C(F)(F)F)cc2n1 [Compound P1, 2-(2-ethylsulfanylphenyl)-6-(trifluoromethyl)pyrazolo[4,3-c]pyridine]
≥ 80%: mortality at 200 ppm [1] | mortality at 200 ppm [2] | mortality at 12 ppm [3] | percent effect (mortality or growth inhibition) at 5 ppm [4] | mortality at 200 ppm [5] | mortality at 200 ppm [6] | percent control (mortality, anti-feedancy or growth inhibition) at 12.5 ppm [7] | percent effect (mortality or growth inhibition) at 200 ppm [8] | percent effect (mortality or growth inhibition) at 200 ppm [9] | mortality at 200 ppm [10]

CCS(=O)(=O)c1ccccc1-n1cc2cnc(C(F)(F)F)cc2n1 [Compound P2, 2-(2-ethylsulfonylphenyl)-6-(trifluoromethyl)pyrazolo[4,3-c]pyridine]
≥ 80%: mortality at 200 ppm [1] | mortality at 200 ppm [2] | mortality at 24 ppm [11] | mortality at 200 ppm [5] | mortality at 200 ppm [6] | percent effect (mortality or growth inhibition) at 200 ppm [9]

CCSc1cccnc1-n1cc2cnc(C(F)(F)F)cc2n1 [Compound P3, 2-(3-ethylsulfanyl-2-pyridyl)-6-(trifluoromethyl)pyrazolo[4,3-c]pyridine]
≥ 80%: mortality at 200 ppm [2] | mortality at 12 ppm [3] | mortality at 200 ppm [5] | mortality at 200 ppm [6] | percent control (mortality, anti-feedancy or growth inhibition) at 12.5 ppm [7] | percent effect (mortality or growth inhibition) at 200 ppm [8] | percent effect (mortality or growth inhibition) at 200 ppm [9]

CCS(=O)(=O)c1cccnc1-n1cc2cnc(C(F)(F)F)cc2n1 [Compound P4, 2-(3-ethylsulfonyl-2-pyridyl)-6-(trifluoromethyl)pyrazolo[4,3-c]pyridine]
≥ 80%: mortality at 200 ppm [2] | mortality at 24 ppm [11] | mortality at 200 ppm [5] | mortality at 200 ppm [6] | percent control (mortality, anti-feedancy or growth inhibition) at 12.5 ppm [7] | percent effect (mortality or growth inhibition) at 200 ppm [8] | percent effect (mortality or growth inhibition) at 200 ppm [9]

CCS(=O)(=O)c1cccnc1-n1cc2cnc(Br)cc2n1 [Compound P6, 6-bromo-2-(3-ethylsulfonyl-2-pyridyl)pyrazolo[4,3-c]pyridine]
≥ 80%: mortality at 200 ppm [2] | mortality at 200 ppm [5]

CCS(=O)(=O)c1cc(C(F)(F)F)cnc1-n1cc2cnc(C(F)(F)F)cc2n1 [Compound P7, 2-[3-ethylsulfonyl-5-(trifluoromethyl)-2-pyridyl]-6-(trifluoromethyl)pyrazolo[4,3-c]pyridine]
≥ 80%: mortality at 200 ppm [2] | percent effect (mortality or growth inhibition) at 5 ppm [4] | mortality at 200 ppm [5] | mortality at 200 ppm [6] | percent control (mortality, anti-feedancy or growth inhibition) at 12.5 ppm [7] | percent effect (mortality or growth inhibition) at 200 ppm [8] | percent effect (mortality or growth inhibition) at 200 ppm [9]

CCS(=O)(=O)c1cc(Br)cnc1-n1cc2cnc(C(F)(F)F)cc2n1 [Compound P8, 2-(5-bromo-3-ethylsulfonyl-2-pyridyl)-6-(trifluoromethyl)pyrazolo[4,3-c]pyridine]
≥ 80%: mortality at 200 ppm [2] | mortality at 200 ppm [5] | mortality at 200 ppm [6] | percent effect (mortality or growth inhibition) at 200 ppm [8] | percent effect (mortality or growth inhibition) at 200 ppm [9]

CCS(=O)(=O)c1cc(C2CC2)cnc1-n1cc2cnc(C(F)(F)F)cc2n1 [Compound P9, 2-(5-cyclopropyl-3-ethylsulfonyl-2-pyridyl)-6-(trifluoromethyl)pyrazolo[4,3-c]pyridine]
≥ 80%: mortality at 200 ppm [5] | mortality at 200 ppm [6]

CCS(=O)(=O)c1cc(-c2ccccc2)cnc1-n1cc2cnc(C(F)(F)F)cc2n1 [Compound P10, 2-(3-ethylsulfonyl-5-phenyl-2-pyridyl)-6-(trifluoromethyl)pyrazolo[4,3-c]pyridine]
≥ 80%: mortality at 200 ppm [2] | mortality at 200 ppm [12] | mortality at 200 ppm [5] | mortality at 200 ppm [6] | percent effect (mortality or growth inhibition) at 200 ppm [8] | percent effect (mortality or growth inhibition) at 200 ppm [9]

CCS(=O)(=O)c1cccnc1-n1cc2nnc(C(F)(F)F)cc2n1 [PP1, 2-(3-ethylsulfonyl-2-pyridyl)-6-(trifluoromethyl)pyrazolo[4,3-c]pyridazine]
≥ 80%: mortality at 200 ppm [2] | mortality at 200 ppm [5] | mortality at 200 ppm [6] | percent effect (mortality or growth inhibition) at 200 ppm [8] | percent effect (mortality or growth inhibition) at 200 ppm [9]
